Structures are written as SMILES. Where a name gives a salt, the structure may show the parent alone. Read-outs that look alike come from different tables or passages of the source.

The target in assay [1] is T1, SARS-CoV-2 PLpro (nsp3 1564–1878) (Severe acute respiratory syndrome coronavirus 2, UniProt P0DTD1). Nature of the assay: biochemical. On the set-up: FRET-quenched peptide (Pro3) cleavage by PLpro, 10 min pre-incubation, slope over 20 min, normalised to no-compound control. The settings on record: high concentration screen, read-out: % of control remaining.
For assay [2], the target named is T1, SARS-CoV-2 PLpro (nsp3 1564–1878). The experiment in a line: biochemical. On the set-up: FRET-quenched peptide (Pro3) cleavage by PLpro, 10 min pre-incubation, slope over 20 min, normalised to no-compound control. The following applies: low concentration screen, read-out: % of control remaining.

For the compound `NC(=O)c1ccc(N(C(N)=O)c2c(F)cccc2F)nc1-c1ccc(F)cc1F` [VX702], the remaining activity at 3.75 µM in assay [1] (Well no.=2943) worked out at 105%. In addition, the remaining activity at 1.25 µM in assay [2] (Well no.=2943) amounted to 104%.

Regarding `CC(C)(C)C#Cc1cc(N(C(=O)[C@H]2CC[C@H](C)CC2)[C@H]2CC[C@H](O)CC2)c(C(=O)O)s1` [VX-222], the remaining activity at 3.75 µM in assay [1] (Well no.=4903) is 96.2%. Moreover, the remaining activity at 1.25 µM in assay [2] (Well no.=4903) stood at 97.1%.

For `CC(C)(CO)c1cc2cc(NC(=O)C3(c4ccc5c(c4)OC(F)(F)O5)CC3)c(F)cc2n1C[C@@H](O)CO` [VX-661], in assay [1] (Well no.=4780), the remaining activity at 3.75 µM amounted to 94.1%. For the same compound, the remaining activity at 1.25 µM in assay [2] (Well no.=4780) came out at 97%.

Regarding `Cc1ccc(NC(=O)C2(c3ccc4c(c3)OC(F)(F)O4)CC2)nc1-c1cccc(C(=O)O)c1` [VX-809], in assay [1] (Well no.=4961), the remaining activity at 3.75 µM worked out at 95%. Moreover, the remaining activity at 1.25 µM in assay [2] (Well no.=4961) turned out to be 95.6%.

For the compound `Cc1ccc2c(=O)c3cccc(CC(=O)O)c3oc2c1C` [Vadimezan], the remaining activity at 3.75 µM in assay [1] (Well no.=8465) was 97.4%. Also, the remaining activity at 1.25 µM in assay [2] (Well no.=8465) came out at 104%.

With `CC(C)[C@H](N)C(=O)OCCOCn1cnc2c(=O)nc(N)[nH]c21` [Valaciclovir], the remaining activity at 3.75 µM in assay [1] (Well no.=2012) came to 97.7%. Moreover, in assay [2] (Well no.=2012), the remaining activity at 1.25 µM came to 98.7%.

In the case of `Cc1onc(-c2ccccc2)c1-c1ccc(S(N)(=O)=O)cc1` [Valdecoxib], the remaining activity at 3.75 µM in assay [1] (Well no.=4694) turned out to be 95.9%. In addition, in assay [2] (Well no.=4694), the remaining activity at 1.25 µM came out at 97.5%.

`CC(C)[C@H](N)C(=O)OCC(CO)OCn1cnc2c(=O)nc(N)[nH]c21` (some centres unmarked) [Valganciclovir (hydrochloride)]: the remaining activity at 3.75 µM in assay [1] (Well no.=8044) turned out to be 93.4%. The remaining activity at 1.25 µM in assay [2] (Well no.=8044) was found to be 94.6%.

On to `CC(C)[C@@H]1NC(=O)[C@H](C)OC(=O)[C@@H](C(C)C)NC(=O)[C@@H](C(C)C)OC(=O)[C@H](C(C)C)NC(=O)[C@H](C)OC(=O)[C@@H](C(C)C)NC(=O)[C@@H](C(C)C)OC(=O)[C@H](C(C)C)NC(=O)[C@H](C)OC(=O)[C@@H](C(C)C)NC(=O)[C@@H](C(C)C)OC1=O` [Valinomycin], for which the remaining activity at 3.75 µM in assay [1] (Well no.=3631) came out at 101%. The remaining activity at 1.25 µM in assay [2] (Well no.=3631) is 99.9%.

Consider `CCC(C)C(CC)C(N)=O` (centres unmarked) [Valnoctamide], for which the remaining activity at 3.75 µM in assay [1] (Well no.=5429) was 110%. The remaining activity at 1.25 µM in assay [2] (Well no.=5429) was 103%.

In the case of `CCCC(CCC)C(=O)O` [Valproic acid sodium], the remaining activity at 3.75 µM in assay [1] (Well no.=812) stood at 99.4%. In addition, the remaining activity at 1.25 µM in assay [2] (Well no.=812) was found to be 99.6%.

As for `CCCC(CCC)C(=O)O` [Valproic acid], in assay [1] (Well no.=1758), the remaining activity at 3.75 µM is 100%. Also, the remaining activity at 1.25 µM in assay [2] (Well no.=1758) was found to be 98.8%.

Turning to `CCCC(CCC)C(N)=O` [Valpromide], in assay [1] (Well no.=5383), the remaining activity at 3.75 µM was 109%. The remaining activity at 1.25 µM in assay [2] (Well no.=5383) stood at 103%.

Take `CCCCC(=O)N(Cc1ccc(-c2ccccc2-c2nnn[nH]2)cc1)[C@H](C(=O)O)C(C)C` [Valsartan]: the remaining activity at 3.75 µM in assay [1] (Well no.=7542) came to 98%; in assay [1] (Well no.=8247), 99.1%. In addition, the remaining activity at 1.25 µM was found to be 94.7% in assay [2] (Well no.=7542) and 105% in assay [2] (Well no.=8247).

Take `C/C=C/C[C@@H](C)C(=O)[C@H]1C(=O)N[C@@H](C(C)C)C(=O)N(C)CC(=O)N(C)[C@@H](CC(C)C)C(=O)N[C@@H](C(C)C)C(=O)N(C)[C@@H](CC(C)C)C(=O)N[C@@H](C)C(=O)N[C@H](C)C(=O)N(C)[C@@H](CC(C)C)C(=O)N(C)[C@@H](CC(C)C)C(=O)N(C)[C@@H](C(C)C)C(=O)N1C` [Valspodar]: the remaining activity at 3.75 µM in assay [1] (Well no.=8226) amounted to 94.7%. Further, the remaining activity at 1.25 µM in assay [2] (Well no.=8226) came to 94.7%.

With `CN[C@H](CC(C)C)C(=O)N[C@H]1C(=O)N[C@@H](CC(N)=O)C(=O)N[C@H]2C(=O)N[C@H]3C(=O)N[C@H](C(=O)N[C@H](C(=O)O)c4cc(O)cc(O)c4-c4cc3ccc4O)[C@H](O)c3ccc(c(Cl)c3)Oc3cc2cc(c3O[C@@H]2O[C@H](CO)[C@@H](O)[C@H](O)[C@H]2O[C@H]2C[C@](C)(N)[C@H](O)[C@H](C)O2)Oc2ccc(cc2Cl)[C@H]1O` [Vancomycin (hydrochloride)], in assay [1] (Well no.=7882), the remaining activity at 3.75 µM was found to be 98.3%. In addition, the remaining activity at 1.25 µM in assay [2] (Well no.=7882) was 103%.

With `COc1cc2/c(=N/c3ccc(Br)cc3F)nc[nH]c2cc1OCC1CCN(C)CC1` [Vandetanib], in assay [1] (Well no.=2799), the remaining activity at 3.75 µM is 101%. Further, in assay [2] (Well no.=2799), the remaining activity at 1.25 µM worked out at 101%.

With `CCN(CC)C(=O)c1ccc(O)c(OC)c1` [Vanillic acid diethylamide], the remaining activity at 3.75 µM in assay [1] (Well no.=644) is 102%. Also, the remaining activity at 1.25 µM in assay [2] (Well no.=644) stood at 97.3%.

On to `COc1cc(C=O)ccc1O` [Vanillin], for which the remaining activity at 3.75 µM in assay [1] (Well no.=7455) is 106%. In addition, the remaining activity at 1.25 µM in assay [2] (Well no.=7455) amounted to 103%.

Consider `CCCc1nc(C)c2c(O)nc(-c3cc(S(=O)(=O)N4CCN(CC)CC4)ccc3OCC)nn12` [Vardenafil HCl Trihydrate], for which, in assay [1] (Well no.=8292), the remaining activity at 3.75 µM was found to be 94.4%. In addition, the remaining activity at 1.25 µM in assay [2] (Well no.=8292) is 101%.

Consider `CCCc1nc(C)c2c(=O)nc(-c3cc(S(=O)(=O)N4CCN(CC)CC4)ccc3OCC)[nH]n12` [Vardenafil], for which, in assay [1] (Well no.=1780), the remaining activity at 3.75 µM was found to be 97.8%. The remaining activity at 1.25 µM in assay [2] (Well no.=1780) came to 97.7%.

In the case of `c1cnc2cc3c(cc2n1)[C@@H]1CNC[C@H]3C1` [Varenicline tartrate], the remaining activity at 3.75 µM in assay [1] (Well no.=4855) is 103%. In addition, the remaining activity at 1.25 µM in assay [2] (Well no.=4855) amounted to 98.1%.

As for `CCc1c(C(=O)C(N)=O)c2c(OCC(=O)O)cccc2n1Cc1ccccc1` [Varespladib (LY315920)], the remaining activity at 3.75 µM in assay [1] (Well no.=4663) was 104%. In assay [2] (Well no.=4663), the remaining activity at 1.25 µM was 105%.

On to `COC(=O)c1ccc2c(C(=Nc3ccc(N(C)C(=O)CN4CCN(C)CC4)cc3)c3ccccc3)c(O)[nH]c2c1` [Vargatef], for which, in assay [1] (Well no.=2847), the remaining activity at 3.75 µM came out at 104%. The remaining activity at 1.25 µM in assay [2] (Well no.=2847) came to 103%.

As for `O[C@H]1CCN2Cc3ccccc3N=C12` [Vasicine], the remaining activity at 3.75 µM in assay [1] (Well no.=3406) turned out to be 94.4%. The remaining activity at 1.25 µM in assay [2] (Well no.=3406) came out at 97.8%.

For `Clc1ccc(Nc2nnc(Cc3ccncc3)c3ccccc23)cc1` [Vatalanib], the remaining activity at 3.75 µM in assay [1] (Well no.=1619) was determined as 95.2%. Also, in assay [2] (Well no.=1619), the remaining activity at 1.25 µM stood at 97%.

Turning to `CC(=O)O[C@H]1C[C@@H]2CC[C@@H]3[C@H](CC[C@@]4(C)[C@H]3C[C@H]([N+]3(C)CCCCC3)[C@@H]4OC(C)=O)[C@@]2(C)C[C@@H]1N1CCCCC1` [Vecuronium], the remaining activity at 3.75 µM in assay [1] (Well no.=2014) stood at 103%. In assay [2] (Well no.=2014), the remaining activity at 1.25 µM was 103%.

On to `CC1(C)CCC(CN2CCN(c3ccc(C(=O)NS(=O)(=O)c4ccc(NCC5CCOCC5)c([N+](=O)[O-])c4)c(Oc4cnc5[nH]ccc5c4)c3)CC2)=C(c2ccc(Cl)cc2)C1` [Venetoclax], for which the remaining activity at 3.75 µM in assay [1] (Well no.=6396) came to 104%; in assay [1] (Well no.=7400), 94.7%. Moreover, the remaining activity at 1.25 µM is 107% in assay [2] (Well no.=6396) and 91.2% in assay [2] (Well no.=7400).

With `COc1ccc(C(CN(C)C)C2(O)CCCCC2)cc1` (centres unmarked) [Venlafaxine], the remaining activity at 3.75 µM in assay [1] (Well no.=2044) was 99.4%. Moreover, the remaining activity at 1.25 µM in assay [2] (Well no.=2044) came out at 100%.
